Publication PMC11173721, “Discovery of a New Class of Lipophilic Pyrimidine-Biphenyl Herbicides Using an Integrated Experimental-Computational Approach” (Molecules, 2024)
pIC50: −log10 of the molar value.

target: T1, acetohydroxyacid synthase (AHAS) (Arabidopsis thaliana, UniProt P17597); test: purified AtAHAS colorimetric activity assay ([…] nm); type: biochemical
T1 construct: gene ALS; wild-type
T1 sequence (P17597 56-670): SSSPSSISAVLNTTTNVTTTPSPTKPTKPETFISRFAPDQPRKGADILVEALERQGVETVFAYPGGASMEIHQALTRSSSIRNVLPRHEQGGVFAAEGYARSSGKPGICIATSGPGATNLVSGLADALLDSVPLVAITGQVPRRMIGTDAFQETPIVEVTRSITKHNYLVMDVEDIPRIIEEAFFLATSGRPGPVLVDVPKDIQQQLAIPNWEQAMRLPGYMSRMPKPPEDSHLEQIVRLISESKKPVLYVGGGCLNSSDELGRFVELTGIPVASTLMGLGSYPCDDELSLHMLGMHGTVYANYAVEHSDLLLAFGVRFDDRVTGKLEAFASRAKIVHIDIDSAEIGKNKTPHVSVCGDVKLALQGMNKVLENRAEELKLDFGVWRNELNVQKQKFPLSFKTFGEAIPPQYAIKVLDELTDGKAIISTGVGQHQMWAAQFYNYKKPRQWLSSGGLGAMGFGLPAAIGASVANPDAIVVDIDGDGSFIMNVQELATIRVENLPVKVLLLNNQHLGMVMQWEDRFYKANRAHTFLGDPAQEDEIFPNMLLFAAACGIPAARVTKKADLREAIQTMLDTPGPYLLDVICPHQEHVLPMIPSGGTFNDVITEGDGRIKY

SMILES	pIC50
COc1cc(OC)nc(Oc2ccccc2CNc2ccccc2-c2ccccc2)n1 [Ia]	3.80
COc1cc(OC)nc(Oc2ccccc2CNc2ccccc2)n1 [PBA]	3.23
COc1cc(OC)nc(Oc2ccccc2CNc2ccc(-c3ccccc3)cc2)n1 [IIIa]	3.46
COc1cc(OC)nc(Oc2ccccc2CNc2cccc(-c3ccccc3)c2)n1 [IIa]	3.72
